These results are taken from patent publication US5849751A, “Amides and sulphonamides of benzylamines having heterocyclic substituents” (Bayer Aktiengesellschaft, priority 1995, dated 1998).

The subject of this assay is release of apoB-100-associated lipoproteins from liver cells (HepG2). In words: Inhibition of the release of apoB-100-associated lipoproteins (HepG2 cells, immunoassay). The assay is classed as cell-based. As to conditions: Homo sapiens; HepG2 culture supernatant, anti-LDL immunoassay, light absorption at 450 nm vs solvent control. The method, then:
1. Inhibition of the release of apoB-100-associated lipoproteins
The test for detection of the inhibition of the release of apoB-100-associated lipoproteins from liver cells was carried out in vitro with cultured liver cells, preferably with cells of the human line HepG2. These cells are cultured under standard conditions in a medium for the culture of eukaryotic cells, preferably in RPMI 1640 with 10% foetal calf serum. HepG2 cells synthesize and secrete into the culture supernatant apoB-100-associated lipoprotein particles, which in principle are similar in structure to the VLDL and LDL particles to be found in plasma.
These particles can be detected with an immunoassay for human LDL. This immunoassay is carried out with antibodies which had been induced in the rabbit against human LDL under standard conditions. The anti-LDL antibodies (rab-anti-LDL- ab) were purified by affinity chromatography on an immunosorbent with human LDL. These purified rab-anti-LDL-ab are adsorbed onto the surface of a plastic. This adsorption is expediently carried out onto the plastic surface of microtitre plates with 96 wells, preferably on MaxiSorp plates. If apoB-100-associated particles are present in the supernatant of Hep-G2 cells, these can bind to the insolubilized rab-anti-LDL-ab, and an immune complex bonded to the plastic surface is formed. Non-bound proteins are removed by washing. The immune complex on the plastic surface is detected with monoclonal antibodies which have been induced against human LDL and purified under standard conditions. These antibodies were conjugated with the enzyme peroxidase. Peroxidase converts the colourless substrate TMB into a coloured product in the presence of H2 O2. After acidification of the reaction mixture with H2 SO4, the specific adsorption of light at 450 nm is determined, this being a measure of the amount of apoB-100-associated particles which have been secreted into the culture supernatant by the HepG2 cells.
The IC50 value indicates the concentration of substance at which the adsorption of light is inhibited by 50% compared with the control (solvent control without substance).

In turn, `Cc1cc(C)c2c3ccccc3n(Cc3ccc(C(N)C4CCCC4)cc3)c2n1` (racemic) [Example 1, 9-{4-[1-(R,S1-Amino-1-cyclopentyl-methyl]phenyl-methyl}-2,4-dimethyl-(α-carboline] showed an IC50 of more than 2000 nM.

On to `Cc1cc(C)c2c3ccccc3n(Cc3ccc(C(NC(=O)C(=NO)c4ccccc4)C4CCCC4)cc3)c2n1` (racemic) [Example 24, 9-{4-[1-(R,S)-1-(2-(E,Z)-2-hydroxyimino-2-phenyl-acetyl)amino-1-cyclopentyl-methyl]phenyl-methyl}-2,4-dimethyl-α-carboline], for which the midpoint of inhibition, the IC50, lay at 300 nM. This counts as sub-micromolar.

`Cc1cc(C)c2c3ccccc3n(Cc3ccc(C(NC(=O)Cc4ccccc4)C4CCCC4)cc3)c2n1` (stereo not drawn) [Example 4]: the IC50 turned out to be 34 nM.

In turn, `Cc1cc(C)c2c3ccccc3n(Cc3ccc(C(NS(=O)(=O)Cc4ccccc4)C4CCCC4)cc3)c2n1` (stereo not drawn) [Example 3] registered an IC50 of 460 nM.

In the case of `Cc1cc(C)c2c3ccccc3n(Cc3ccc(C(NC(=O)C(O)c4ccccc4)C4CCCC4)cc3)c2n1` (racemic) [Example 18, 9-{4-[1-(R,S)-1-(2-(R,S)-2-Phenyl-2-hydroxy-acetyl)amino-1-cyclopentyl-methyl]phenyl-methyl}-2,4-dimethyl-α-carboline], 39 nM corresponded to half-maximal inhibition (IC50). This IC50 lies about 12-fold lower than the previous one.

With `COc1ccc(CC(=O)NC(c2ccc(Cn3c4ccccc4c4c(C)cc(C)nc43)cc2)C2CCCC2)cc1` (stereo not drawn) [Example 5], the half-inhibitory concentration (IC50) is 38 nM.

As usually defined, the IC50 is the point on the concentration scale where inhibition reaches its midpoint. Lower therefore signals inhibition by little substance.
